From patent EP4722195A1, “PH-SENSITIVE CATIONIC LIPID AND LIPID NANOPARTICLES” (National University Corporation Hokkaido University, priority 2023, dated 2024) come the findings set out here.

Molecules are shown by their SMILES.

Series [1] is described as follows: Zeta potential of lipid nanoparticles. In kind it is physicochemical. Here is the method:
The average particle size (number average value), ζ-average particle size, and polydispersity index (PdI) of the lipid nanoparticles in PBS(-) (pH 7.4), and the zeta potential in 10 mM HEPES buffer (pH 7.4) were measured using an analyzer "Zetasizer Nano ZS ZEN3600" (manufactured by Malvern) utilizing dynamic light scattering.

Another series relates to transthyretin (TTR). Nature of the series: TTR-targeted genome editing in mice, serum TTR (ELISA). In kind it is in vivo, Balb/c mice. The following applies: for TTR knockout activity: serum TTR one week after administration, N = 3. Here is the method:
Specifically, an RNA solution was first prepared to contain Cas9-mRNA (TriLink, SmoU-modified) and gRNA targeting transthyretin (TTR) at a mass ratio of 1:2 (N/P = 6.0). Using this RNA solution, in the same manner as Example 27, lipid nanoparticles encapsulating Cas9-mRNA and TTR-gRNA (SEQ ID NO: 1) and having a composition of TxT/DSPC/chol/PEG-DMG = 50/3/47/1.5 (mol%) were prepared (lipid nanoparticles for TTR-targeted genome editing). […]
Subsequently, each of the prepared lipid nanoparticles for TTR-targeted genome editing was administered via tail vein injection to female Balb/c mice (4 weeks old) at a dose of 1.5 mg Cas9 mRNA/kg. […] The collected blood was allowed to stand at room temperature for 1 hour, followed by centrifugation at 25°C, 1,000 × g for 15 minutes. The supernatant was collected to obtain serum. The TTR concentration in the serum was measured using a commercially available ELISA kit (Prealbumin ELISA Kit Mouse, Aviva Systems Biology). Calibration samples were prepared by serial dilution from 500 ng/mL to obtain solutions of 250, 125, 62.5, 31.25, and 15.63 ng/mL, each in a volume of 300 µL. Serum samples were diluted 10,000-fold. A volume of 100 µL of each calibration sample and serum sample was applied to the plate and incubated at 25°C for 30 minutes. The wells were washed four times, and 100 µL of Enzyme-Antibody Conjugate was added to each well. The plate was shielded from light using aluminum foil and incubated at 25°C for 20 minutes. After another four washes, 100 µL of TMB Substrate Solution (Aviva Systems Biology) was added to each well, and the plate was shielded from light using aluminum foil and incubated at 25°C for 10 minutes. Finally, 100 µL of Stop Solution (Aviva Systems Biology) was added, and absorbance at 450 nm was measured using a spectrofluorometer (Varioskan Lux, Thermo Fisher Scientific).
Subsequently, the lipid nanoparticles for TTR-targeted genome editing were administered to mice and serum TTR levels (µg/mL) were measured (N = 3) in the same manner as in Example 32, except that a dose of Cas9-mRNA was adjusted to 0.1, 0.3, and 1.0 mg/kg. In the figure, "NT" indicates the measurement result of serum from mice that were not administered lipid nanoparticles.
Background: In an ELISA, binding on a coated surface is turned into a signal by an enzyme label.

For a further series, the system named is hEPO. Kind of series: hEPO in the serum of mice administered hEPO mRNA-loaded lipid nanoparticles (ELISA). The following applies: Example 29, Fig. 8, 6, 24, and 48 hours after administration, N = 3. In kind it is in vivo. How it is done:
Subsequently, each hEPO mRNA-loaded lipid nanoparticle was administered to mice, and blood samples were collected from the tail vein at 6, 24, and 48 hours after administration (N = 3). The collected blood was allowed to stand at room temperature for 90 minutes, followed by centrifugation at 25°C, 1,000 x g for 15 minutes. The supernatant was collected to obtain serum. The hEPO activity in the serum was measured using a commercially available ELISA kit (Human EPO ELISA Kit, Invitrogen). Calibration samples were prepared by serial dilution from 100 mIU/mL to obtain solutions of […], each in a volume of 450 µL. Serum samples were diluted 10- to 10,000-fold to fall within the calibration range. A volume of 100 µL of each calibration sample and serum sample was applied to the plate, followed by the addition of […] of Biotin-Conjugate and incubation at 18 to 25°C for 1 hour. The wells were washed six times, and 100 µL of Streptavidin-HRP was added to each well and incubated at 18 to 25°C for 15 minutes. After another six washes, 100 µL of TMB Substrate Solution was added to each well, and the plate was shielded from light using aluminum foil and incubated at 18 to 25°C for 10 minutes. Finally, 100 µL of Stop Solution was added, and absorbance at 450 nm was measured using a spectrofluorometer (Varioskan Lux, Thermo Fisher Scientific).

The subject of the next series is various tissues. Nature of the series: Fluc activity in various tissues of mice administered Fluc mRNA-loaded lipid nanoparticles. The conditions noted are these: Example 23, Figs. 2B to 2E; TxT-5-5A16/DSPC/chol/PEG-DMG=50/X/50-X/1.5 (mol%); 0.1 mg mRNA/kg; six hours. In kind it is in vivo, BALB/c mice. How it is done:
Lipid nanoparticles were administered to mice by intravenous injection into the tail vein using a 27G needle. Unless otherwise specified, BALB/c mice (4 to 5 weeks old, female) were used.
First, BALB/c mice (female, 4 weeks old) were intravenously injected with lipid nanoparticles encapsulating Fluc mRNA (Fluc mRNA-loaded lipid nanoparticles) at a dose of 0.1 mg mRNA/kg. Six hours after intravenous injection, the mice were euthanized, each tissue was collected, frozen in liquid nitrogen, and stored at -80°C. The tissues were homogenized in passive lysis buffer (manufactured by Promega) using a bead-type cell disruptor (Micro Smash MS-100R, manufactured by TOMY Seiko). Tissue debris was removed by centrifugation, and the supernatant was collected. Fluc activity in the supernatant was measured using the Luciferase Assay System (E1500, manufactured by Promega) according to the manufacturer's protocol. Luminescence was measured using a luminometer (Luminescencer-PSN, manufactured by ATTO). Protein concentration was determined using a commercially available assay kit (BCA Protein Assay Kit, manufactured by Pierce). Fluc activity was expressed as relative light units (RLU) per mg of protein. […]

[2] abbreviates: Table 1, Fluc mRNA-loaded lipid nanoparticles, TxT/DSPC/chol/PEG-DMG=50/15/35/1.5 (mol%).
Setting [3] is: Table 3, Fluc mRNA-loaded lipid nanoparticles, TxT/DSPC/chol/PEG-DMG=50/3/47/1.5 (mol%).
Setting [4] is: Table 5, EGFP mRNA-loaded lipid nanoparticles, TxT/DSPC/chol/PEG-DMG=50/3/47/1.5 (mol%), total flow rate 3.0 mL/min.
[5] abbreviates: Table 6 (Example 28), Fluc mRNA-loaded lipid nanoparticles, TxT/DSPC/chol/PEG-DMG=50/3/47/1.5 (mol%).
Setting [6] is: Table 7, hEPO mRNA-loaded lipid nanoparticles, TxT/DSPC/chol/PEG-DMG=50/3/47/1.5, SM-102/DSPC/chol/PEG-DMG=50/10/40/1.5 (mol%).
Setting [7] is: Table 8 (Example 32), lipid nanoparticles for TTR-targeted genome editing, Cas9-mRNA and TTR-gRNA 1:2 (N/P = 6.0), TxT/DSPC/chol/PEG-DMG = 50/3/47/1.5 (mol%).
[8] abbreviates: Example 32, Fig. 11, 1.5 mg Cas9 mRNA/kg tail vein.

Regarding `CCCCCCC(CCCC)CNC(=O)CCCC(=O)OCC(COC(=O)CCCC(=O)NCC(CCCC)CCCCCC)(COC(=O)CCCC(=O)NCC(CCCC)CCCCCC)NC(=O)CCN1CCCCC1` (stereo not drawn) [TxT-5-5A12β, 2-(((5-((2-butyloctyl)amino)-5-oxopentanoyl)oxy)methyl)-2-(3-(piperidin-1-yl)propanamido)propane-1,3-diyl bis(5-((2-butyloctyl)amino)-5-oxopentanoate)], the ζ-potential is on record as -6.0 mV in series [1] (setting [2]); -5.6 mV in series [1] (setting [3]); -7.8 mV in series [1] (setting [4]); -8.4 mV in series [1] (setting [5]); -3.0 mV in series [1] (setting [6]); -3.8 mV in series [1] (setting [7]). For the same compound, in the series on transthyretin (TTR) (setting [8]), the TTR knockout activity result is reported as “exceeding 85%”. Further, the “hEPO concentrations in serum compared to lipid nanoparticles comprising SM-102” value with hEPO is “clearly higher hEPO concentrations”.

Regarding `CCCCCCCN(CCCCCCC)C(=O)CCCC(=O)OCC(COC(=O)CCCC(=O)N(CCCCCCC)CCCCCCC)(COC(=O)CCCC(=O)N(CCCCCCC)CCCCCCC)NC(=O)CCN1CCCCC1` [TxT-5-5A14, 2-(((5-(diheptylamino)-5-oxopentanoyl)oxy)methyl)-2-(3-(piperidin-1-yl)propanamido)propane-1,3-diyl bis(5-(diheptylamino)-5-oxopentanoate)], the ζ-potential in series [1] (setting [2]) is given as -3.4 mV; in series [1] (setting [3]) it was -7.5 mV; in series [1] (Table 4, Fluc mRNA-loaded lipid nanoparticles, TxT-5-5A14/DSPC/chol/PEG-DMG=50/3/47/1.5, SM-102, ALC-0315 or MC3/DSPC/chol/PEG-DMG=50/10/40/1.5 (mol%)) it was -8.9 mV; in series [1] (setting [4]), -13.0 mV; in series [1] (setting [5]) it was -6.4 mV; in series [1] (setting [6]), -1.4 mV. Also, the ζ-potential in series [1] (setting [7]) was -5.5 mV; in series [1] (Table 9 (Example 33), lipid nanoparticles for TTR-targeted genome editing, Cas9-mRNA and TTR-gRNA 1:2 (N/P = 6.0), TxT-5-5A14/DSPC/chol/PEG-DMG = 50/3/47/1.5 (mol%)), -4.0 mV; in series [1] (Table 10 (Example 34), lipid nanoparticles for PCSK9-targeted genome editing, Cas9-mRNA and PCSK9-gRNA 1:2 (N/P = 6.0), TxT-5-5A14/DSPC/chol/PEG-DMG = 50/3/47/1.5 (mol%)), -1.6 mV. The TTR knockout activity entry in the series with transthyretin (TTR) (setting [8]) was “exceeding 85%”; with transthyretin (TTR) (Example 33, Fig. 12, dose of 0.3 mg RNA/kg), “no less than 60%”. Also, the “TTR knockout efficiency versus dose” value with transthyretin (TTR) (Example 33, Fig. 12, 0.1, 0.3, and 1.0 mg/kg) was “dose-dependent increase in TTR knockout efficiency”. Moreover, the “hEPO concentrations in serum compared to lipid nanoparticles comprising SM-102” value in the series with hEPO is given as “clearly higher hEPO concentrations”.

`CCCCCCCCN(CCCCCCCC)C(=O)CCCC(=O)OCC(COC(=O)CCCC(=O)N(CCCCCCCC)CCCCCCCC)(COC(=O)CCCC(=O)N(CCCCCCCC)CCCCCCCC)NC(=O)CCN1CCCCC1` [TxT-5-5A16, 2-(((5-(dioctylamino)-5-oxopentanoyl)oxy)methyl)-2-(3-(piperidin-1-yl)propanamido)propane-1,3-diyl bis(5-(dioctylamino)-5-oxopentanoate)]: the ζ-potential is -3.3 mV in series [1] (setting [2]); -2.7 mV in series [1] (Table 2, Fluc mRNA-loaded lipid nanoparticles, TxT-5-5A16/DSPC/chol/PEG-DMG=50/X/50-X/1.5 (mol%), DSPC concentration 3 mol %); -2.4 mV in series [1] (Table 2, Fluc mRNA-loaded lipid nanoparticles, TxT-5-5A16/DSPC/chol/PEG-DMG=50/X/50-X/1.5 (mol%), DSPC concentration 6 mol %); -2.2 mV in series [1] (Table 2, Fluc mRNA-loaded lipid nanoparticles, TxT-5-5A16/DSPC/chol/PEG-DMG=50/X/50-X/1.5 (mol%), DSPC concentration 9 mol %); -1.9 mV in series [1] (Table 2, Fluc mRNA-loaded lipid nanoparticles, TxT-5-5A16/DSPC/chol/PEG-DMG=50/X/50-X/1.5 (mol%), DSPC concentration 12 mol %); -4.1 mV in series [1] (Table 2, Fluc mRNA-loaded lipid nanoparticles, TxT-5-5A16/DSPC/chol/PEG-DMG=50/X/50-X/1.5 (mol%), DSPC concentration 15 mol %). The ζ-potential in series [1] (setting [3]) is on record as -2.7 mV; in series [1] (setting [4]), -8.4 mV. For the same compound, the “Effect of DSPC content on Fluc activity in the spleen, kidney, lung, and heart” value in the series with various tissues is listed as “no effect of DSPC content on Fluc activity was observed”.
